Assay results: patent publication US20240122926A1, “APELIN RECEPTOR MODULATORS FOR TREATING MUSCLE CONDITIONS” (priority 2022, published 2024)

How the values were obtained:
[1] = system: healthy volunteers aged ≥65 years; assay: Phase 1b bed rest study, ultrasound muscle quality grade (echo density); type: in vivo, human
Procedure: One day before (baseline, D-1) and 5 (D5) and 10 (D10) days after initiation of bed rest, key muscle atrophy endpoints were measured: thigh circumference; cross-sectional area (CSA) and A-P diameter of vastus lateralis (ultrasound); ultrasound muscle quality grade, an index that quantifies fatty degeneration in muscle (ultrasound echo density); and muscle protein synthesis rate (biopsy). Parameters measured during the 10-day bed rest period include thigh circumference, muscle size, muscle quality (e.g., fatty degeneration), and muscle protein synthetic rate.
The echo density measurements showing the number of patients receiving an ultrasound muscle quality grading scale using a numerical grading system of grade 1 or a grade 2 classifying fatty muscle atrophy by measuring fatty infiltration of the muscle fibers of a biopsy from the patient. […] Open box represents normal muscle (grade 1), and striped box represents muscle that contains some fatty streaks (grade 2). […] (p=0.0019).

[2] = system: Twenty-month-old male C57/Bl6 mice; assay: Hindlimb immobilization (casting, 21 days) disuse atrophy in aged mice, muscle wet weight; type: in vivo, mouse; settings: 50 mg/kg BID P.O.; 21 days immobilization (placebo group 25%)
Source text: Limb immobilization causes a loss of gross skeletal muscle mass accompanied by a significant decrease in apelin transcript levels.
One week into the treatment, mice underwent modified hindlimb casting on one limb. Mice were anesthetized with isoflurane inhalation and the hindlimb wiped with povidone-iodine, then ethanol, and loosely wrapped in surgical gauze. A custom-made plastic immobilization device was placed on the limb, with the foot in full extension, so as to result in the maximal in vivo unloading of the plantarflexor group. The device was fixed to the hindlimb using Vetbond and the animal returned to its cage. After 3 weeks of treatment following casting, mice were euthanized 1 hour after the final ZT1 dose, and tissues isolated, weighed, then flash frozen in liquid nitrogen for subsequent western blot analysis.

[3] = 14-day IV study in rat (toxicology exposure); type: in vivo
Procedure: The updated exposure margins considering the highest maximum exposures in rats and dogs are calculated as follows: maximum exposure in the rat (male) was in the 14-day IV study and at the 300 mg/kg dose, the AUClast is 1070 μg*hr/mL; maximum exposure in dogs occurred at the 300 mg/kg dose in the 9-month oral toxicity study and the AUClast is 1310*μg·hr/mL.

[4] = system: 24-month-old C57BL/6 mice; assay: Activity monitoring wheel test in aged mice (frailty study); type: in vivo, mouse; settings: 275 ug/mL in drinking water; both experiments; average
Procedure: The animals were housed with access to voluntary running wheels that wirelessly transmit running data to a computer for analysis. Voluntary running wheel activity levels were measured daily, and body weights were measured every 2 weeks.
The study concluded on Study Day 83. Activity wheel monitoring started on Study Day 1 and ended on Study Day 83 (Phase Day 64). The data was analyzed at the end of the study. […] For the frailty portion of the study, mice were assessed using an activity monitoring wheel which was monitored passively with a computer monitoring system.
BGE-105 was administered in drinking water consumed ad libitum. The compound is mildly acidic when dissolved, resulting in a pH 4.5 solution. The deionized water was adjusted to pH 8.5 by adding 1N NaOH. […]
The activity-monitoring wheel is a running disk that monitors rotations. […] Activity was monitored passively and wirelessly with a computer monitoring system. Running wheel activity levels were monitored daily. […] Mouse activity levels were measured as the number of wheel revolutions per day for each mouse and converted into a daily count of kilometers run using the diameter of the wheel. Within each experimental group, the daily median value for activity was calculated. […] The daily differences between the distances run in each group were calculated and tested for an increasing trend using Kendall's rank correlation tau.

**Q.** With COc1cccc(OC)c1-n1c(NS(=O)(=O)[C@@H](C)[C@H](C)c2ncc(C)cn2)nnc1-c1cncc(C)c1 [BGE-105, (2S,3R)—N-(4-(2,6-dimethoxyphenyl)-5-(5-methyl-3-pyridinyl)-4H-1,2,4-triazol-3-yl)-3-(5-methyl-2-pyrimidinyl)-2-butanesulfonamide] as the compound, how does the “Muscle grade (progression), number of subjects out of 11” value ([1]; 240 mg daily (cohort MD 1B), 10-day bed rest) read?
**A.** Its value is 1.

**Q.** What about the “number of patients (out of 11) moving to / worsening to ultrasound muscle quality grade 2” value ([1]; after 10 days of bed rest (placebo 8 of 10)) of the same compound?
**A.** Its value is 1.

**Q.** What about the “decrease of wet weight of tibialis anterior (TA) muscle in casted limb” value [2] of the same compound?
**A.** Its value is 3%.

**Q.** And the “predicted human exposure margin Human:Rat” value ([3]; 240 mg loading dose + 1440 mg IV for 22 hours, 1036/1070)?
**A.** The value was 0.97.

**Q.** What about the AUC(0-t) ([3]; in vivo, rat (male), 14-day IV study, 300 mg/kg, read-out: AUClast, maximum exposure) of the same compound?
**A.** Its AUC(0-t) is 1070 µg·h/mL.

**Q.** And the NOAEL ([3]; rat)?
**A.** The NOAEL was “maximum dose tested”.

**Q.** What about the “distance run more than vehicle-treated mice at end of experimental period” value [4] of the same compound?
**A.** Its value is “at least 1 km/day”.
